Literature values in patent publication US6749867B2, “Delivery system for omeprazole and its salts” (priority 2000, dated 2004).
Read-outs that look alike come from different tables or passages of the source.

How the values were obtained:
[1] = not given; remark: listed apart in the source
[2] = in vivo

## COc1ccc2[nH]c([S+]([O-])Cc3ncc(C)c(OC)c3C)nc2c1 (stereo not drawn) [omeprazole, Omeprazole]
Acidic aqueous solutions, pH values below 4
  half-life of degradation: less than 10 minutes
pH 6.5
  half-life of degradation: about 18 hours
pH 11
  half-life of degradation: several hundred
[1]; alkaline solution, as the negatively charged ion
  solubility in alkaline solution: very soluble
[1]; water
  solubility in water: very slightly soluble
[2]
  plasma half-life: about 60 minutes
